# Results: paper PMC12136037, “Type II kinase inhibitors that target Parkinson’s disease–associated LRRK2” (Science Advances, 2025)
# Values joined by “and” are separate entries in the source; they are usually repeats but may differ in a detail not shown here. Identical values can stand only once. Like-named read-outs stand apart in the source and are kept apart here.
# Columns and labels:
# DYRK2 = molecular target: T1, DYRK2 (Homo sapiens, UniProt Q92630); assay: nanoBRET off-target validation; assay type: cell-based
# T1 construct: host or cells: HEK293T (ATCC CRL-3216)
# T1 sequence (Q92630 1-601): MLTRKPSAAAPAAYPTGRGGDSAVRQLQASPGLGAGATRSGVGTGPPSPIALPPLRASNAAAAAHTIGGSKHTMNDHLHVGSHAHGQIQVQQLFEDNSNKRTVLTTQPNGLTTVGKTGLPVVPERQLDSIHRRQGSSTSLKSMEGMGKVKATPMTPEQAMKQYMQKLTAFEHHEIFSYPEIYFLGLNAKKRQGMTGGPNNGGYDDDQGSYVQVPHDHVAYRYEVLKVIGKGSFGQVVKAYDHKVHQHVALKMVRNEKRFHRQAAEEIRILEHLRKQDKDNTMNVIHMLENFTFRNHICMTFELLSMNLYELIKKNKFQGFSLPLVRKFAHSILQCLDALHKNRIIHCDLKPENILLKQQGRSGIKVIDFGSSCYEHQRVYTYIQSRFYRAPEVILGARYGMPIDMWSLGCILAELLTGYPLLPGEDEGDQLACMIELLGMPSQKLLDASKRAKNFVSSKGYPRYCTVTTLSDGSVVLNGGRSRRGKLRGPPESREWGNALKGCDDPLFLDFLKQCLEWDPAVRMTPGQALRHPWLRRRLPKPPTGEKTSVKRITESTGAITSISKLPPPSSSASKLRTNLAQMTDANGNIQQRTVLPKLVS
# Experimental: (§1) The assay was performed as described previously ([61]). In brief, full-length kinases as listed in table S6 were obtained as plasmids cloned in frame with terminal NanoLuc-fusion (gift from Promega; table S6). […] Serially diluted inhibitor and corresponding tracer as listed in table S6 at the Tracer KD concentration taken from TracerDB (tracerdb.org) ([62]) were pipetted into white 384-well plates (Greiner, 781207) using an ECHO acoustic dispenser (Labcyte). The corresponding protein-transfected cells were added and reseeded at a density of 2 × 10^5 cells/ml after trypsinization and resuspending in Opti-MEM without phenol red (Life Technologies). The system was allowed to equilibrate for 3 hours at 37°C/5% CO2 before bioluminescence resonance energy transfer (BRET) measurements. To measure BRET, NanoBRET NanoGlo Substrate + extracellular NanoLuc Inhibitor (Promega, N2540) was added as per the manufacturer’s protocol, and filtered luminescence was measured on a PHERAstar plate reader (BMG Labtech) equipped with a luminescence filter pair [450-nm BP filter (donor) and 610-nm LP filter (acceptor)]. […] (For step-by-step protocol, see www.eubopen.org/sites/www.eubopen.org/files/attachments/2021/NanoBRET-IC50_v1_0.pdf.)
# TTK = molecular target: T2, TTK (Homo sapiens, UniProt P33981); assay: nanoBRET off-target validation; assay type: cell-based; conditions: TTK, two replicates
# T2 construct: host or cells: HEK293T (ATCC CRL-3216)
# T2 sequence (P33981 1-857): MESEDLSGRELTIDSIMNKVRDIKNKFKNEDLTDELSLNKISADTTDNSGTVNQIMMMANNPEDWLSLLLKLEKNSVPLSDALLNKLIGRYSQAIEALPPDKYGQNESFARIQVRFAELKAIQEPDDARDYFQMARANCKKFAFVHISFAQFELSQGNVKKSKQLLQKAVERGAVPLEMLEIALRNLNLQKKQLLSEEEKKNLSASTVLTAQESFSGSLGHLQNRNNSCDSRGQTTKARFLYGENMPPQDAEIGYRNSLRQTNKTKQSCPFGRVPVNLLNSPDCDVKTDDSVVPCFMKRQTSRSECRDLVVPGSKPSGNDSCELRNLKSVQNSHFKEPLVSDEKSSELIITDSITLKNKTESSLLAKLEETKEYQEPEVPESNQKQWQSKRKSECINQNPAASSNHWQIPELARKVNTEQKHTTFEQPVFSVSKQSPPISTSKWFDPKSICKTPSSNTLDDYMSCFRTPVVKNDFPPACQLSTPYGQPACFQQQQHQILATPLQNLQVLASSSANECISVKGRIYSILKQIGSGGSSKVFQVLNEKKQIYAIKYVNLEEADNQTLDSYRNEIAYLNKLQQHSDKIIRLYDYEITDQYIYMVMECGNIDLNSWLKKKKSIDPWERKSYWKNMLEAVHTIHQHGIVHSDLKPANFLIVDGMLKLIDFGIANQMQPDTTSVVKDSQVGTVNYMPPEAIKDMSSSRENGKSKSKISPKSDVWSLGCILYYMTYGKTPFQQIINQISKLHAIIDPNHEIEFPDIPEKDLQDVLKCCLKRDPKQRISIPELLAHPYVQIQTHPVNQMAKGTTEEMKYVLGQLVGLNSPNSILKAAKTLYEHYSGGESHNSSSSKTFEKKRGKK
# Experimental: as §1
structure (smiles),measurement,setting,value
CCSc1nc(NC)c2c(-c3cccc(NC(=O)Nc4cc(C(C)(C)C)nn4-c4ccc(C)cc4)c3)c[nH]c2n1 [Compound 32],EC50,DYRK2,≥ 20 µM
same,nanoBRET response normalized to 0% (no tracer) and 100% (no inhibitor) control,"DYRK2; DYRK2, inhibitor 8 nM, two replicates, listed as RN341, 0.008 µM",91.4839%
same,remaining nanoBRET tracer signal (% of no-inhibitor control) at 0.008 µM,"DYRK2; DYRK2, inhibitor 8 nM, two replicates, read-out: nanoBRET response normalized to 0% (no tracer) and 100% (no inhibitor) control",100%
same,nanoBRET response normalized to 0% (no tracer) and 100% (no inhibitor) control,"DYRK2; DYRK2, inhibitor 16 nM, two replicates, listed as RN341, 0.016 µM",93.886%
same,remaining nanoBRET tracer signal (% of no-inhibitor control) at 0.016 µM,"DYRK2; DYRK2, inhibitor 16 nM, two replicates, read-out: nanoBRET response normalized to 0% (no tracer) and 100% (no inhibitor) control",98.2%
same,nanoBRET response normalized to 0% (no tracer) and 100% (no inhibitor) control,"DYRK2; DYRK2, inhibitor 50 nM, two replicates, listed as RN341, 0.05 µM",96.6464%
same,remaining nanoBRET tracer signal (% of no-inhibitor control) at 0.05 µM,"DYRK2; DYRK2, inhibitor 50 nM, two replicates, read-out: nanoBRET response normalized to 0% (no tracer) and 100% (no inhibitor) control",100%
same,remaining nanoBRET tracer signal (% of no-inhibitor control) at […],"DYRK2; DYRK2, inhibitor 250 nM, two replicates, read-out: nanoBRET response normalized to 0% (no tracer) and 100% (no inhibitor) control",102% and 94.4%
same,nanoBRET response normalized to 0% (no tracer) and 100% (no inhibitor) control,"DYRK2; DYRK2, inhibitor 500 nM, two replicates, listed as RN341, 0.5 µM",90.6654%
same,remaining nanoBRET tracer signal (% of no-inhibitor control) at 0.5 µM,"DYRK2; DYRK2, inhibitor 500 nM, two replicates, read-out: nanoBRET response normalized to 0% (no tracer) and 100% (no inhibitor) control",98.4%
same,nanoBRET response normalized to 0% (no tracer) and 100% (no inhibitor) control,"DYRK2; DYRK2, inhibitor 2500 nM, two replicates, listed as RN341, […]",86.4231%
same,remaining nanoBRET tracer signal (% of no-inhibitor control) at […],"DYRK2; DYRK2, inhibitor 2500 nM, two replicates, read-out: nanoBRET response normalized to 0% (no tracer) and 100% (no inhibitor) control",88.8%
same,nanoBRET response normalized to 0% (no tracer) and 100% (no inhibitor) control,"DYRK2; DYRK2, inhibitor 5000 nM, two replicates, listed as RN341, 5 µM",92.7606%
same,remaining nanoBRET tracer signal (% of no-inhibitor control) at 5 µM,"DYRK2; DYRK2, inhibitor 5000 nM, two replicates, read-out: nanoBRET response normalized to 0% (no tracer) and 100% (no inhibitor) control",83.2%
same,nanoBRET response normalized to 0% (no tracer) and 100% (no inhibitor) control,"DYRK2; DYRK2, inhibitor 25000 nM, two replicates, listed as RN341, 25 µM",54.6216%
same,remaining nanoBRET tracer signal (% of no-inhibitor control) at 25 µM,"DYRK2; DYRK2, inhibitor 25000 nM, two replicates, read-out: nanoBRET response normalized to 0% (no tracer) and 100% (no inhibitor) control",47.6%
same,nanoBRET response normalized to 0% (no tracer) and 100% (no inhibitor) control,"TTK; inhibitor 8 nM, listed as RN341, 0.008 µM",91.3329%
same,remaining activity at 0.008 µM,"TTK; inhibitor 8 nM, read-out: nanoBRET response normalized to 0% (no tracer) and 100% (no inhibitor) control",96.9%
same,nanoBRET response normalized to 0% (no tracer) and 100% (no inhibitor) control,"TTK; inhibitor 16 nM, listed as RN341, 0.016 µM",88.618%
same,remaining activity at 0.016 µM,"TTK; inhibitor 16 nM, read-out: nanoBRET response normalized to 0% (no tracer) and 100% (no inhibitor) control",84.1%
same,nanoBRET response normalized to 0% (no tracer) and 100% (no inhibitor) control,"TTK; inhibitor 50 nM, listed as RN341, 0.05 µM",96.6909%
same,remaining activity at 0.05 µM,"TTK; inhibitor 50 nM, read-out: nanoBRET response normalized to 0% (no tracer) and 100% (no inhibitor) control",85.3%
same,nanoBRET response normalized to 0% (no tracer) and 100% (no inhibitor) control,"TTK; inhibitor 250 nM, listed as RN341, […]",83.1162%
same,remaining activity at […],"TTK; inhibitor 250 nM, read-out: nanoBRET response normalized to 0% (no tracer) and 100% (no inhibitor) control",80%
same,nanoBRET response normalized to 0% (no tracer) and 100% (no inhibitor) control,"TTK; inhibitor 500 nM, listed as RN341, 0.5 µM",67.3053%
